# From ChEMBL document CHEMBL3046330, “Synthesis and biological activity of hydrazidehydrazones and their corresponding 3-acetyl-2,5-disubstituted-2,3-dihydro-1,3,4-oxadiazoles” (Med Chem Res, 2012)
# Calls of active or inactive are those of the source. The calls are words filed in the database; no cut-off is given here.
# Key:
# SW1353 = assay: Inhibition of PMA-induced NFkappaB activity in Homo sapiens (human) SW1353 cells up to 25 ug/ml incubated for 30 min followed by PMA induction for 8 hr by luciferase reporter gene assay; format: cell-based
# Fusarium oxysporum = assay: Antifungal activity against Fusarium oxysporum assessed as growth inhibition at 30 uM after 72 hr by broth microdilution method; format: functional; details: read-out: GI
# KB = assay: Cytotoxicity against Homo sapiens (human) KB cells assessed as cell viability up to 25 ug/ml after 48 hr by neutral red assay; format: functional, cell-based
# SK-OV-3 = assay: Cytotoxicity against Homo sapiens (human) SKOV3 cells assessed as cell viability up to 25 ug/ml after 48 hr by neutral red assay; format: functional, cell-based
# Botrytis cinerea = assay: Antifungal activity against Botryotinia fuckeliana at 0.3 to 30 uM after 48 to 72 hr by broth microdilution method; format: functional, organism-based
# Candida albicans [1] = assay: Antifungal activity against Candida albicans clinical isolate after 24 hr by NCCLS broth microdilution method; format: functional
# Nakaseomyces glabratus = assay: Antifungal activity against Candida glabrata clinical isolate after 24 hr by NCCLS broth microdilution method; format: functional
# Candida albicans [2] = assay: Antifungal activity against Candida albicans ATCC 90028 after 24 hr by NCCLS broth microdilution method; format: functional; details: ATCC 90028, 24 h
# Candida tropicalis [3] = assay: Antifungal activity against Candida tropicalis NRRL Y-12968 at 2000 ug/ml by agar diffusion method; format: functional; details: read-out: IZ
# Candida albicans [4] = assay: Antifungal activity against Candida albicans NRRL Y-12983 after 24 hr by NCCLS broth microdilution method; format: functional; details: NRRL Y-12983, 24 h
# [5] = molecular target: T1, Nitric oxide synthase, inducible (Mus musculus) (UniProt P29477); assay: Inhibition of iNOS in Mus musculus (mouse) RAW264.7 cells assessed as inhibition of LPS-induced nitrite production up to 25 ug/ml incubated for 30 min prior to LPS challenge measured after 24 hr by Griess assay relative to vehicle-treated control; format: cell-based
# T1 sequence (whole entry): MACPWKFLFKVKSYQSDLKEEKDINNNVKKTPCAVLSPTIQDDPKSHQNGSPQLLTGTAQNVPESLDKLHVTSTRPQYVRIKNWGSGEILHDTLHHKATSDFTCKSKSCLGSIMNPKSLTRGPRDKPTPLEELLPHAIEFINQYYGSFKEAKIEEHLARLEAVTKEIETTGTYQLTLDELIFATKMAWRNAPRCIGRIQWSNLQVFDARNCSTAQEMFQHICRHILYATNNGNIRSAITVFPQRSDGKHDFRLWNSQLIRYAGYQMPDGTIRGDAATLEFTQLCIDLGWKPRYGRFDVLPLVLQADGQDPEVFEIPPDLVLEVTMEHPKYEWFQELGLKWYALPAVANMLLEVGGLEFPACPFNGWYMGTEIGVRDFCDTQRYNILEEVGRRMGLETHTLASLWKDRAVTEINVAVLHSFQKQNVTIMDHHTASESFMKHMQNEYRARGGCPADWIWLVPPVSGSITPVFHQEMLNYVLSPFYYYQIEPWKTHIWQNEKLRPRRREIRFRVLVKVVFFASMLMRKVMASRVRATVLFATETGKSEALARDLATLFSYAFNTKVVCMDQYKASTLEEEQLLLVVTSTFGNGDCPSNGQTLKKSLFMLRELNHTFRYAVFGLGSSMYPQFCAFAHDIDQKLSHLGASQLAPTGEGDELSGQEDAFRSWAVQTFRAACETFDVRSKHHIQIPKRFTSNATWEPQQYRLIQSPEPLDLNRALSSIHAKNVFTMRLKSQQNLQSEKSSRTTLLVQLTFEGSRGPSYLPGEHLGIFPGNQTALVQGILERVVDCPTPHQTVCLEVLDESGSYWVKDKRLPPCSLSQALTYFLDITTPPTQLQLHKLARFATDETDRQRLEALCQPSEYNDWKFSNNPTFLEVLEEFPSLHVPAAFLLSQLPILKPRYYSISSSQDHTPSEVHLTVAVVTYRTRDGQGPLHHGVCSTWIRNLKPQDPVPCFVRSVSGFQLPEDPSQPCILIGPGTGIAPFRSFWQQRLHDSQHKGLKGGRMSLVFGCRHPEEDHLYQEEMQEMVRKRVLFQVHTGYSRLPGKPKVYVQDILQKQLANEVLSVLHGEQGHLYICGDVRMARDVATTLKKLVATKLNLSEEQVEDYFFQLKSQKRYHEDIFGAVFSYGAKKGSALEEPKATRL
# Pichia kudriavzevii = assay: Antifungal activity against Pichia kudriavzevii NRRL Y-7179 after 24 hr by NCCLS broth microdilution method; format: functional; details: NRRL Y-7179, 24 h
# Candida albicans [6] = assay: Antifungal activity against Candida albicans clinical isolate at 2000 ug/ml by agar diffusion method; format: functional; details: read-out: IZ
# [7] = system: Colletotrichum gloeosporioides; assay: Antifungal activity against Colletotrichum gloeosporioides assessed as growth inhibition at 30 uM after 72 hr by broth microdilution method; format: functional; details: read-out: GI
# Candida parapsilosis = assay: Antifungal activity against Candida parapsilosis NRRL Y-12696 after 24 hr by NCCLS broth microdilution method; format: functional; details: Lodderomyces parapsilosis, NRRL Y-12696, 24 h
# SK-MEL = assay: Cytotoxicity against Homo sapiens (human) SK-MEL cells assessed as cell viability up to 25 ug/ml after 48 hr by neutral red assay; format: functional, cell-based
# HL-60 [8] = assay: Cytotoxicity against Homo sapiens (human) HL60 cells up to 25 ug/ml; format: cell-based
# Transcription factor Sp1 = Transcription factor Sp1 (Homo sapiens, UniProt P08047); assay: Inhibition of Sp1 (unknown origin) up to 25 ug/ml by luciferase reporter gene assay
# BT-549 = assay: Cytotoxicity against Homo sapiens (human) BT549 cells assessed as cell viability up to 25 ug/ml after 48 hr by neutral red assay; format: functional, cell-based
# Colletotrichum fragariae = assay: Antifungal activity against Colletotrichum fragariae at 0.3 to 30 uM after 48 to 72 hr by broth microdilution method; format: functional, organism-based
# Cyberlindnera jadinii = assay: Antifungal activity against Cyberlindnera jadinii NRRL Y-900 after 24 hr by NCCLS broth microdilution method; format: functional; details: Williopsis jadinii, NRRL Y-900, 24 h
# [9] = Cytotoxicity against Sus scrofa (pig) LLC-PK11 cells assessed as cell viability up to 25 ug/ml after 48 hr by neutral red assay; format: cell-based; details: llc-pk11, 48 h
# RAW264.7 = assay: Cytotoxicity against Mus musculus (mouse) RAW264.7 cells up to 25 ug/ml; format: cell-based
# HL-60 [10] = assay: Antioxidant activity in PMA-stimulated Homo sapiens (human) HL60 cells assessed as inhibition of intracellular ROS generation up to 25 ug/ml incubated for 30 min prior to PMA stimulation measured after 30 min by DCFH-DA assay relative to vehicle-treated control; format: functional, cell-based
# Vero = assay: Cytotoxicity against Chlorocebus aethiops (African green monkey) Vero cells assessed as cell viability up to 25 ug/ml after 48 hr by neutral red assay; format: cell-based; details: chlorocebus sabaeus
# [11] = Inhibition of PMA-induced NFkappaB activity in Homo sapiens (human) SW1353 cells incubated for 30 min followed by PMA induction for 8 hr by luciferase reporter gene assay; format: cell-based
# [12] = molecular target: T2, Nitric oxide synthase, inducible (Mus musculus, UniProt P29477); assay: Inhibition of iNOS in Mus musculus (mouse) RAW264.7 cells assessed as inhibition of LPS-induced nitrite production incubated for 30 min prior to LPS challenge measured after 24 hr by Griess assay; format: cell-based
# T2 sequence (P29477 whole entry): T1 sequence (whole entry)
# Candida tropicalis [13] = assay: Antifungal activity against Candida tropicalis NRRL Y-12968 after 24 hr by NCCLS broth microdilution method; format: functional; details: NRRL Y-12968, 24 h
# HL-60 [14] = assay: Antioxidant activity in PMA-stimulated Homo sapiens (human) HL60 cells assessed as inhibition of intracellular ROS generation incubated for 30 min prior to PMA stimulation measured after 30 min by DCFH-DA assay; format: functional, cell-based
# HL-60 [15] = assay: Cytotoxicity against Homo sapiens (human) HL60 cells; format: cell-based
# Phomopsis obscurans = assay: Antifungal activity against Phomopsis obscurans assessed as growth inhibition at 30 uM after 144 hr by broth microdilution method; format: functional; details: Paraphomopsis obscurans, read-out: GI
# Colletotrichum acutatum = assay: Antifungal activity against Colletotrichum acutatum assessed as growth inhibition at 30 uM after 72 hr by broth microdilution method; format: functional; details: read-out: GI
# Transcription factor Sp1, sequence (P08047 whole entry): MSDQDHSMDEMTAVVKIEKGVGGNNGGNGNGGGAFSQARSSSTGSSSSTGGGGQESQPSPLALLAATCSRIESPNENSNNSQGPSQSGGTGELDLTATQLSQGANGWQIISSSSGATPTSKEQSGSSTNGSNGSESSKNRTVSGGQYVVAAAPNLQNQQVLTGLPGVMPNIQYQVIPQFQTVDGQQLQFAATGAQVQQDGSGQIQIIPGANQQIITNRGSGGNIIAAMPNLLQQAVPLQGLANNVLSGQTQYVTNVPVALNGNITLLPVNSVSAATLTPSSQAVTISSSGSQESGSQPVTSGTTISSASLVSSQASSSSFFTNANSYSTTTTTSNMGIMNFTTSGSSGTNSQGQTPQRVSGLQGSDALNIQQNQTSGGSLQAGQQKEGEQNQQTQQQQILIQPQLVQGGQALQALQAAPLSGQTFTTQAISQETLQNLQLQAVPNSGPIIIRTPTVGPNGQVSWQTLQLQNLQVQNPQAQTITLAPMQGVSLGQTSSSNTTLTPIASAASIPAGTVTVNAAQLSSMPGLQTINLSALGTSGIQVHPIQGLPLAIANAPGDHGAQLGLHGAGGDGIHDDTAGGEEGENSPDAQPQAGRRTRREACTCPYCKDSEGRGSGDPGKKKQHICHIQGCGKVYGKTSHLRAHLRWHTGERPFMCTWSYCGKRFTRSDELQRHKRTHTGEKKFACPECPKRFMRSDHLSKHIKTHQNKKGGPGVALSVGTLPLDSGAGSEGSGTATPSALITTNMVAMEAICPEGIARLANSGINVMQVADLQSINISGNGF
MIC (Candida albicans [1]) [µg/mL],MIC (Nakaseomyces glabratus) [µg/mL],MIC (Candida albicans [2]) [µg/mL],MIC (Candida albicans [4]) [µg/mL],MIC (Pichia kudriavzevii) [µg/mL],MIC (Candida parapsilosis) [µg/mL],inhibition (INH) (Transcription factor Sp1),MIC (Cyberlindnera jadinii) [µg/mL],SMILES,inhibition (SW1353),Activity (KB),Activity (SK-OV-3),Activity (Botrytis cinerea),zone of inhibition at 2000 µg/mL (Candida tropicalis [3]) [mm],zone of inhibition at 2000 µg/mL (Candida albicans [6]) [mm],Activity (SK-MEL),Activity (BT-549),Activity (Colletotrichum fragariae),Activity [9],Activity (RAW264.7),Activity (Vero),other results
500,250,500,500,500,1000,Not Active,1000,O=C(N/N=C/c1ccc(Br)cc1)c1ccc(F)cc1,inactive,inactive,inactive,inactive,9,9,inactive,inactive,inactive,Not Active,Non-toxic,Not Active,inhibition of growth at 30 µM (Fusarium oxysporum): 35%; inhibition [5]: inactive; inhibition of growth at 30 µM [7]: 22%; Activity (HL-60 [8]): Non-toxic; inhibition (HL-60 [10]): inactive
250,250,500,500,500,500,Not Active,250,COc1ccc(C2OC(c3ccc(F)cc3)=NN2C(C)=O)cc1O (configuration not stated),–,inactive,inactive,inactive,9,9,inactive,inactive,inactive,Not Active,Non-toxic,Not Active,IC50 [11]: 0.75 µg/mL; IC50 [12]: 12.1 µM; MIC (Candida tropicalis [13]): 500 µg/mL; IC50 (HL-60 [14]): 0.9 µg/mL; IC50 (HL-60 [15]): 20 µg/mL
> 1000,> 1000,> 1000,> 1000,> 1000,> 1000,Not Active,> 1000,CC(=O)N1N=C(c2ccc(F)cc2)OC1c1ccc(Br)s1 (configuration not stated),inactive,inactive,inactive,inactive,9,9,inactive,inactive,inactive,Not Active,Non-toxic,Not Active,inhibition of growth at 30 µM (Fusarium oxysporum): 67%; inhibition of growth at 30 µM (Phomopsis obscurans): 65%; inhibition of growth at 30 µM (Colletotrichum acutatum): 49%; inhibition [5]: inactive; inhibition of growth at 30 µM [7]: 66%; MIC (Candida tropicalis [13]): > 1000 µg/mL; inhibition (HL-60 [10]): inactive; IC50 (HL-60 [15]): 5.9 µg/mL
